# According to patent US7811997B2, “Composition containing total triterpenoid sapogenins extracted from bamboo, and the preparation method and use thereof” (priority 2002, dated 2010):
# Like-named read-outs stand apart in the source and are kept apart here.
# Experiments:
# A375 (human malanoma) = assay: MTT proliferation inhibition, A375 cells; type: cell-based; details: Homo sapiens, read-out: Inhibitory rate (%)
# Text: (§1) The Silica Gel Column Chromatography and Countercurrent Chromatography preparation techniques were used to obtain Friedelin monomer extracted from EZR2002 for the sake of evaluating its anti-tumor activity further. The purity of this monomer determined by GC-MS analysis was 90.5%.
# (§2) A375 (human malanoma), L929 (mouse lung epithelial tumor), Hela (human cervical tumor) and THP-1 (human macrophage tumor) cell lines were used for active filtration test in this experiment. Among these cell lines, A375, L929 and Hela were adherent cells while THP-1 was a kind of suspended cell.
# (§3) All cells were maintained in the RPMI-1640 culture medium supplemented with 10% fetal calf serum, penicillin (100 U/mL), streptomycin (100 μg/mL) and 0.2% NaHCO3. These supplements were dissolved in deionized water and 0.22 μm filtration membrane was used for filter sterilization. The fetal calf serum was inactivated 30 min at 56° C. prior to an experiment. Cells were cultured in a humidified incubator of 5% CO2 at 37° C.
# (§4) A375, L929 and Hela cells in logarithmic growth phases were seeded at a cell density of approximately 5×10^4 cells/mL in 96 pore plates (100 μL/well). Furthermore, THP-1 cell was seeded at a cell density of approximately 1×10^5 cells/mL because it was smaller than others. Samples were added in suspended cells after culturing 4 h and in adherent cells after culturing 12 h. Friedelin was dissolved in DMSO in advance and then in the culture medium with the ultrasonic treatment, where the final concentration of the solvent in the culture medium was <0.1% (v/v). Sample was added for 7.5, 15, 30, 60, 120, 240, 480 and 960 μmol/L. Each level had four parallel pores and a negative control. The cells were incubated for 24 and 48 h and then 15 μL/well MTT solvent (5 mg/mL) was added.
# (§5) The cells were incubated for 48 h, followed by centrifugation at 1500 rpm for 5 min. The supernatant was removed and 150 μL/well DMSO was added, followed by micro-vibrator shocking for 10 min and crystal dissolving completely. The absorbance (OD value) was measured by enzyme-labeled meter at 492 nm. Furthermore, the inhibitory rate of cell proliferation and the IC50 value of friedelin were counted by using Bliss method.
# (§6) The de-methyl-cantharidin was taken as the positive control and the inhibitory rate of A375, L929 and Hela cells were measured by adding de-methyl-cantharidin (120 μmol/L) for 24 and 48 h (Table 8). Furthermore, the corresponding data of Friedelin were counted.
# [1] = test system: Hela (human cervical tumor); assay: MTT proliferation inhibition, Hela cells; type: cell-based; details: Homo sapiens, HeLa, read-out: Inhibitory rate (%)
# Text: as §1, §2, §3, §4, §5, §6
# [2] = test system: L929 (mouse lung epithelial tumor); assay: MTT proliferation inhibition, L929 cells; type: cell-based; details: Mus musculus, read-out: Inhibitory rate (%)
# Text: as §1, §2, §3, §4, §5, §6
# [3] = test system: A549 human lung adenocarcinoma cells; assay: Growth inhibition of A549 cells (SRB protein coloring method, 72 h); type: cell-based
# Method: Sulforhodamine B (SRB) protein staining method and microculture tetrozolium (MTT) reduction method were used to measure the growth inhibitory effects of tumor cells by EZR2002 with the test objects of P388 mouse leukemia cells and A549 human lung adenocarcinoma cells, respectively. The effect time was 48 h and 72 h, respectively.
# (§7) 10^−5, 10^−6 and 10^−7 mol/L were determined as three critical levels. Invalid, weak effect and strong effect were determined as three evaluation indices.
# [4] = test system: P388 mouse leukemia cells; assay: Growth inhibition of P388 cells (MTT reduction method, 48 h); type: cell-based
# Method: […] growth […] The effect time was 48 h and 72 h, respectively.
# as §7
# [5] = compounds from bamboo shoot sheath; Sakai 1999; cited from earlier work
structure (smiles),measurement,setting,value
"O=C1OC(=O)C2C3CCC(O3)C12 (centres unmarked) [De-methyl-cantharidin, de-methyl-cantharidin, reference compound]",inhibition at 120 µM,"A375 (human malanoma); A-375, 24 h",38.6%
same,inhibition at 120 µM,"A375 (human malanoma); A-375, 48 h",50.4%
same,inhibition at 120 µM,[1]; 24 h,34.1%
same,inhibition at 120 µM,[1]; 48 h,43.7%
same,inhibition at 120 µM,"[2]; L929, 24 h",40.5%
same,inhibition at 120 µM,"[2]; L929, 48 h",34.4%
CC[C@]1(O)C[C@H]2CN(CCc3c([nH]c4ccccc34)[C@@](C(=O)OC)(c3cc4c(cc3OC)N(C=O)[C@H]3[C@@](O)(C(=O)OC)[C@H](OC(C)=O)[C@]5(CC)C=CCN6CC[C@]43[C@@H]65)C2)C1 [Vincristin],Evaluation,[3],Weak
same,Inhibition rate (%),[3]; sample level 10^−4 mol/L,71.3%
same,Inhibition rate (%),[3]; sample level 10^−5 mol/L,71.6%
same,Inhibition rate (%),[3]; sample level 10^−6 mol/L,66.5%
same,Inhibition rate (%),[3]; sample level 10^−7 mol/L,44.3%
same,Inhibition rate (%),[3]; sample level 10^−8 mol/L,9.6%
same,Evaluation,[4],Strong
same,Inhibition rate (%),[4]; sample level 10^−4 mol/L,93.1%
same,Inhibition rate (%),[4]; sample level 10^−5 mol/L,94.3%
same,Inhibition rate (%),[4]; sample level 10^−6 mol/L,94.8%
same,Inhibition rate (%),[4]; sample level 10^−7 mol/L,94.7%
same,Inhibition rate (%),[4]; sample level 10^−8 mol/L,93.2%
O=C1c2c(O)cc(O)cc2O[C@H](c2ccc(O)c(O)c2)[C@H]1O [taxifolin],anti-oxidative activity relative to that of α-tocopherol,[5],~1%
COc1cc(-c2cc(=O)c3c(O)cc(O)cc3o2)cc(OC)c1O [tricin],anti-oxidative activity relative to that of α-tocopherol,[5],~10%
